Legend:
[1] = system: M1, M2 (w/Gqi5) and M3 ACh receptors stably expressed in CHO cells; test: Calcium mobilization (FLIPR) IC50 determination for antagonists, inhibition of ACh induced muscarinic receptor activation; format: cell-based, human; conditions: EC80 ACh, active if IC50 of between 33 uM and 10 nM or less, listed examples found to be the most active
Excerpt: Studies to determine the effectiveness of antagonists to cause blockade of functional intracellular calcium fluxes following agonist (ACh) treatment of cloned human receptors.
This system is used for characterizations of antagonist-receptor interactions using four distinct variations of the FLIPR methodology: (a) potency: IC50 determination, (b) potency: pA2 determination, (c) reversibility of antagonist-receptor interaction, or (d) confirmation of no functional agonist activity. Cell Source The human M1-M3 receptors are cloned and stably expressed in Chinese Hamster Ovary (CHO) cells. The M2 receptors are co-expressed with the chimeric G protein, Gqi5. […] The emitted fluorescence from all 96 wells is measured simultaneously using a cooled CCD camera. […] Experimental Protocols: Cell plating: A microtiter plate based calcium mobilization FLIPR (Fluorometric Imaging Plate Reader, Molecular Devices, Sunnyvale Calif., [Schroeder K S, Neagle, B D. FLIPR: a new instrument for accurate, high throughput optical screening. J. Biomol. Screen. 1996; 1:75.]) assay is used for the functional characterization of compounds against M1, M2 (w/Gqi5) and M3 ACh receptors stably expressed in CHO cells. […]

[2] = molecular target: T1, Human recombinant PDE4B (Homo sapiens, UniProt Q07343); test: Inhibition of PDE activity: luciferase-coupled PDE assay (PDE4B); format: biochemical; conditions: active if pIC50 of about 6 to 10.4 or greater against PDE4B; listed examples found to be the most active
T1 construct: made in house; host or cells: Saccharomyces cerevisiae strain GL62
T1 sequence (Q07343 1-564 isoform Q07343-2): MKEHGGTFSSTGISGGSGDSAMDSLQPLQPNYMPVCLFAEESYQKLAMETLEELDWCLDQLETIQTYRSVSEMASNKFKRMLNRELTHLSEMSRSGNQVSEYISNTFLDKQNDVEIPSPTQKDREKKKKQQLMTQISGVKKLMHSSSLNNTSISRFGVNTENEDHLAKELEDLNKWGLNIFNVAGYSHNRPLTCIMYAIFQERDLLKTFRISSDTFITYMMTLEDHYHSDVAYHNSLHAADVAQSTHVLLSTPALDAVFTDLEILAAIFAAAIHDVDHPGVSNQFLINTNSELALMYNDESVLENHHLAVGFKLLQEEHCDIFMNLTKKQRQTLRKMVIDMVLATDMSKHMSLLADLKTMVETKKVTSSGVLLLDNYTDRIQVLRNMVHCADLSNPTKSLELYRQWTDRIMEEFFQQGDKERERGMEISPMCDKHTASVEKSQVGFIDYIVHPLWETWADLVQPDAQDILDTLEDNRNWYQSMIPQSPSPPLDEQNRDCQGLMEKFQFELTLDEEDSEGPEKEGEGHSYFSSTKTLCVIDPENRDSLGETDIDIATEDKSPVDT
Excerpt: Human recombinant PDE4B, in particular the 2B splice variant thereof (HSPDE4B2B), is disclosed in WO 94/20079 and also in M. M. McLaughlin et al., “A low Km, rolipram-sensitive, cAMP-specific phosphodiesterase from human brain: cloning and expression of cDNA, biochemical characterization of recombinant protein, and tissue distribution of mRNA”, J. Biol. Chem., 1993, 268, 6470-6476. For example, in Example 1 of WO 94/20079, human recombinant PDE4B is described as being expressed in the PDE-deficient yeast Saccharomyces cerevisiae strain GL62. PDE4B expression is induced by the addition of 150 μM CuSO4.
For luminescence-coupled assay based screening the supernatant fractions of yeast cell lysates are subjected to Cibacron blue affinity chromatography, dialysis and desalting, to enrich for PDE4B and to remove components, e.g. ATP, able to interfere with the assay. Human recombinant PDE4D (HSPDE4D3A) is disclosed in P. A. Baecker et al., “Isolation of a cDNA encoding a human rolipram-sensitive cyclic AMP phosphodiesterase (PDE IVD)”, Gene, 1994, 138, 253-256. Expression of human PDE4D in yeast, and subsequent preparation of the recombinant protein for assay was as described for PDE4B.
Inhibition of PDE4B and PDE4D are measured using a luminescence-coupled assay system developed by Cambrex. This assay system couples the formation of AMP, derived from PDE4-catalyzed hydrolysis of cAMP, to the formation of ATP. The ATP is then used as a substrate for Luciferase and results in light as a signal output. […] The luminescence is then measured on a Viewlux imager (Perkin Elmer) using emission filters of 613/55 nm or 618/40 nm and a 5 second exposure. […] Curves were analyzed using ActivityBase and XL fit, and results are expressed as pIC50 values. […]
Curves were analyzed using ActivityBase and XLfit, and results are expressed as pIC50 values. […]

SMILES | activity in FLIPR antagonist IC50 assay (inhibition of ACh induced response) [1] | activity in the PDE4B assay (pIC50) [2]
CCc1nc2c(cnn2CC)c(NC2CCOCC2)c1CNC(=O)CC(=O)NCc1cccc(-c2cccc(CN3CCCNCC3)c2)c1 [Example 180, N-{[1,6-Diethyl-4-(tetrahydro-2H-pyran-4-ylamino)-1H-pyrazolo[3,4-b]pyridin-5-yl]methyl}-N′-{[3′-(hexahydro-1H-1,4-diazepin-1-ylmethyl)-3-biphenylyl]methyl}propanediamide] | most active | 
CCc1nc2c(cnn2CC)c(NC2CCOCC2)c1CNC(=O)CCCC(=O)NCc1ccc(F)c(-c2cccc(CN3C[C@@H]4C[C@@H]3CN4Cc3ccccc3)c2)c1 [Example 193, N-{[1,6-diethyl-4-(tetrahydro-2H-pyran-4-ylamino)-1H-pyrazolo[3,4-b]pyridin-5-yl]methyl}-N′-[(6-fluoro-3′-{[(1R,4S)-5-(phenylmethyl)-2,5-diazabicyclo[2.2.1]hept-2-yl]methyl}-3-biphenylyl)methyl]pentanediamide] | most active | 
CCc1nc2c(cnn2CC)c(NC2CCOCC2)c1CNC(=O)CC(=O)NCc1ccc(F)c(-c2cccc(CN3C[C@@H](C)N[C@@H](C)C3)c2)c1 [Example 217, N-{[1,6-diethyl-4-(tetrahydro-2H-pyran-4-ylamino)-1H-pyrazolo[3,4-b]pyridin-5-yl]methyl}-N′-[(3′-{[(3R,5S)-3,5-dimethyl-1-piperazinyl]methyl}-6-fluoro-3-biphenylyl)methyl]propanediamide] |  | most active
CCc1nc2c(cnn2CC)c(NC2CCOCC2)c1CNC(=O)CCC(=O)NCc1ccc(Cl)c(-c2cccc(CN3CCN[C@@H](C)C3)c2)c1 [Example 265, N-[(6-chloro-3′-{[(3S)-3-methyl-1-piperazinyl]methyl}-3-biphenylyl)methyl]-N′-{[1,6-diethyl-4-(tetrahydro-2H-pyran-4-ylamino)-1H-pyrazolo[3,4-b]pyridin-5-yl]methyl}butanediamide] |  | most active
CCc1nc2c(cnn2CC)c(NC2CCOCC2)c1CNC(=O)CCC(=O)NCc1ccc(F)c(-c2cccc(CN3CCN[C@H](C)C3)c2)c1 [Example 267, N-{[1,6-diethyl-4-(tetrahydro-2H-pyran-4-ylamino)-1H-pyrazolo[3,4-b]pyridin-5-yl]methyl}-N′-[(6-fluoro-3′-{[(3R)-3-methyl-1-piperazinyl]methyl}-3-biphenylyl)methyl]butanediamide] |  | most active
